# Assay results as given in PubChem BioAssay (NCI).
#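 Values below derive from 48-hour exposures of cells grown in 96-well plates, with endpoints linearly interpolated between the two concentrations bracketing the appropriate inhibition level. TGI is the concentration that stops growth completely.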
# Tested on: 786-0 renal
# Experiment: growth of human tumour cells (NCI), 48 h
row,Structure (SMILES),TGI [µM]
1,CCN(CC)C(=S)SS(=O)(=O)c1ccc(C)cc1,50.5
2,C[C@@H]1C(=O)CC2(O)[C@@]13C[C@@H](OC(=O)[C@@H]3O)[C@@H](C)[C@@]21COC1=O (stereo partly specified),> 100
3,CCCCCC(C(O)C#N)C(O)(C(F)(F)F)C(F)(F)F (stereo unspecified),> 10
4,CC/C=C\C/C=C\C/C=C\CCCCCCCC(=O)OC(COC(=O)CCCCCCCCCCCCCCCCC)COC1OC(CO)C(O)C(O)C1O (stereo unspecified),> 25
5,CC12CCC(C/C1=N\NC(N)=O)C2(C)C (stereo unspecified),> 100
6,COC(=O)C1=C(C)N2[C@H](C(=O)O)CS[C@@]2(C)[C@H](C(=O)OC)[C@H]1c1cccc([N+](=O)[O-])c1,> 100
7,COC(=O)C(CCCCNC(=O)CNC(=O)OCc1ccccc1)NC(=O)C(CCCCNC(=O)CNC(=O)OCc1ccccc1)NC(=O)OCc1ccccc1 (stereo unspecified),> 100

# Tested on: A498 renal
# Experiment: growth of human tumour cells (NCI), 48 h
row,Structure (SMILES),TGI [µM]
1,CCN(CC)C(=S)SS(=O)(=O)c1ccc(C)cc1,> 100
2,CC/C=C\C/C=C\C/C=C\CCCCCCCC(=O)OC(COC(=O)CCCCCCCCCCCCCCCCC)COC1OC(CO)C(O)C(O)C1O (stereo unspecified),> 25
3,COC(=O)C1=C(C)N2[C@H](C(=O)O)CS[C@@]2(C)[C@H](C(=O)OC)[C@H]1c1cccc([N+](=O)[O-])c1,> 100
4,COC(=O)C(CCCCNC(=O)CNC(=O)OCc1ccccc1)NC(=O)C(CCCCNC(=O)CNC(=O)OCc1ccccc1)NC(=O)OCc1ccccc1 (stereo unspecified),> 100

# Tested on: A549 NSCLC
# Experiment: growth of human tumour cells (NCI), 48 h
row,Structure (SMILES),TGI [µM]
1,C[C@@H]1C(=O)CC2(O)[C@@]13C[C@@H](OC(=O)[C@@H]3O)[C@@H](C)[C@@]21COC1=O (stereo partly specified),> 100
2,COc1ccc(/C(C)=N/NC(=S)N(C)C)c(O)c1,> 100
3,CCCCCC(C(O)C#N)C(O)(C(F)(F)F)C(F)(F)F (stereo unspecified),> 10
4,CC/C=C\C/C=C\C/C=C\CCCCCCCC(=O)OC(COC(=O)CCCCCCCCCCCCCCCCC)COC1OC(CO)C(O)C(O)C1O (stereo unspecified),> 25
5,CC12CCC(C/C1=N\NC(N)=O)C2(C)C (stereo unspecified),> 100
6,COC(=O)C1=C(C)N2[C@H](C(=O)O)CS[C@@]2(C)[C@H](C(=O)OC)[C@H]1c1cccc([N+](=O)[O-])c1,> 100
7,COC(=O)C(CCCCNC(=O)CNC(=O)OCc1ccccc1)NC(=O)C(CCCCNC(=O)CNC(=O)OCc1ccccc1)NC(=O)OCc1ccccc1 (stereo unspecified),> 100

# Tested on: ACHN renal
# Experiment: growth of human tumour cells (NCI), 48 h
row,Structure (SMILES),TGI [µM]
1,CCN(CC)C(=S)SS(=O)(=O)c1ccc(C)cc1,> 100
2,C[C@@H]1C(=O)CC2(O)[C@@]13C[C@@H](OC(=O)[C@@H]3O)[C@@H](C)[C@@]21COC1=O (stereo partly specified),> 100
3,COc1ccc(/C(C)=N/NC(=S)N(C)C)c(O)c1,> 100
4,CCCCCC(C(O)C#N)C(O)(C(F)(F)F)C(F)(F)F (stereo unspecified),> 10
5,CC/C=C\C/C=C\C/C=C\CCCCCCCC(=O)OC(COC(=O)CCCCCCCCCCCCCCCCC)COC1OC(CO)C(O)C(O)C1O (stereo unspecified),> 25
6,CC12CCC(C/C1=N\NC(N)=O)C2(C)C (stereo unspecified),> 100
7,COC(=O)C1=C(C)N2[C@H](C(=O)O)CS[C@@]2(C)[C@H](C(=O)OC)[C@H]1c1cccc([N+](=O)[O-])c1,> 100
8,COC(=O)C(CCCCNC(=O)CNC(=O)OCc1ccccc1)NC(=O)C(CCCCNC(=O)CNC(=O)OCc1ccccc1)NC(=O)OCc1ccccc1 (stereo unspecified),> 100

# Tested on: BT-549 breast
# Experiment: growth of human tumour cells (NCI), 48 h
row,Structure (SMILES),TGI [µM]
1,CCN(CC)C(=S)SS(=O)(=O)c1ccc(C)cc1,68.2
2,C[C@@H]1C(=O)CC2(O)[C@@]13C[C@@H](OC(=O)[C@@H]3O)[C@@H](C)[C@@]21COC1=O (stereo partly specified),> 100
3,COc1ccc(/C(C)=N/NC(=S)N(C)C)c(O)c1,66.6
4,CCCCCC(C(O)C#N)C(O)(C(F)(F)F)C(F)(F)F (stereo unspecified),> 10
5,CC/C=C\C/C=C\C/C=C\CCCCCCCC(=O)OC(COC(=O)CCCCCCCCCCCCCCCCC)COC1OC(CO)C(O)C(O)C1O (stereo unspecified),> 25
6,CC12CCC(C/C1=N\NC(N)=O)C2(C)C (stereo unspecified),> 100
7,COC(=O)C1=C(C)N2[C@H](C(=O)O)CS[C@@]2(C)[C@H](C(=O)OC)[C@H]1c1cccc([N+](=O)[O-])c1,> 100
8,COC(=O)C(CCCCNC(=O)CNC(=O)OCc1ccccc1)NC(=O)C(CCCCNC(=O)CNC(=O)OCc1ccccc1)NC(=O)OCc1ccccc1 (stereo unspecified),> 100

# Tested on: CAKI-1 renal
# Experiment: growth of human tumour cells (NCI), 48 h
row,Structure (SMILES),TGI [µM]
1,CCN(CC)C(=S)SS(=O)(=O)c1ccc(C)cc1,37.3
2,COc1ccc(/C(C)=N/NC(=S)N(C)C)c(O)c1,96.6
3,CCCCCC(C(O)C#N)C(O)(C(F)(F)F)C(F)(F)F (stereo unspecified),> 10
4,CC/C=C\C/C=C\C/C=C\CCCCCCCC(=O)OC(COC(=O)CCCCCCCCCCCCCCCCC)COC1OC(CO)C(O)C(O)C1O (stereo unspecified),> 25
5,CC12CCC(C/C1=N\NC(N)=O)C2(C)C (stereo unspecified),> 100
6,COC(=O)C1=C(C)N2[C@H](C(=O)O)CS[C@@]2(C)[C@H](C(=O)OC)[C@H]1c1cccc([N+](=O)[O-])c1,> 100
7,COC(=O)C(CCCCNC(=O)CNC(=O)OCc1ccccc1)NC(=O)C(CCCCNC(=O)CNC(=O)OCc1ccccc1)NC(=O)OCc1ccccc1 (stereo unspecified),> 100

# Tested on: CCRF-CEM leukemia
# Experiment: growth of human tumour cells (NCI), 48 h
row,Structure (SMILES),TGI [µM]
1,C[C@@H]1C(=O)CC2(O)[C@@]13C[C@@H](OC(=O)[C@@H]3O)[C@@H](C)[C@@]21COC1=O (stereo partly specified),> 100
2,COc1ccc(/C(C)=N/NC(=S)N(C)C)c(O)c1,87.9
3,CCCCCC(C(O)C#N)C(O)(C(F)(F)F)C(F)(F)F (stereo unspecified),> 10
4,CC/C=C\C/C=C\C/C=C\CCCCCCCC(=O)OC(COC(=O)CCCCCCCCCCCCCCCCC)COC1OC(CO)C(O)C(O)C1O (stereo unspecified),> 25
5,CC12CCC(C/C1=N\NC(N)=O)C2(C)C (stereo unspecified),> 100
6,COC(=O)C1=C(C)N2[C@H](C(=O)O)CS[C@@]2(C)[C@H](C(=O)OC)[C@H]1c1cccc([N+](=O)[O-])c1,> 100
7,COC(=O)C(CCCCNC(=O)CNC(=O)OCc1ccccc1)NC(=O)C(CCCCNC(=O)CNC(=O)OCc1ccccc1)NC(=O)OCc1ccccc1 (stereo unspecified),> 100

# Tested on: COLO 205 colon
# Experiment: growth of human tumour cells (NCI), 48 h
row,Structure (SMILES),TGI [µM]
1,CCN(CC)C(=S)SS(=O)(=O)c1ccc(C)cc1,63.7
2,C[C@@H]1C(=O)CC2(O)[C@@]13C[C@@H](OC(=O)[C@@H]3O)[C@@H](C)[C@@]21COC1=O (stereo partly specified),> 100
3,COc1ccc(/C(C)=N/NC(=S)N(C)C)c(O)c1,12.4
